This note sets out measurements from PubChem BioAssay AID1745844 (Carcinogenic Potency Database (CPDB), 2022).

“And” between values parts separate entries of the source, which are not always exact repeats. Equal entries are not always repeated. The source made the active and inactive calls. How the calls were made is not given here.

What is called TD50 is the dose at which the toxic effect under study appears in half of the subjects.

The data set concerns rodent lifetime carcinogenesis bioassay, tumor incidence TD50. In words: carcinogenic potency in animals, long-term in vivo studies, CPDB compilation (AID 1745844).

As to `Nc1ccc2oc3ccccc3c2c1`, the carcinogen call (mouse, strain (C57 x IF)F1, females, in feed, site: liver, lesion: several types, types named in the paper, dosed 52 weeks, study length 58 weeks) was “positive”. For the same compound, the TD50 runs as follows: (mouse, strain (C57 x IF)F1, males, in feed, site: liver, lesion: malignant hepatoma, dosed 52 weeks, study length 67 weeks) 8.67 mg/kg/day; (mouse, strain (C57 x IF)F1, males, in feed, site: liver, lesion: several types, types named in the paper, dosed 52 weeks, study length 67 weeks) 5.73 mg/kg/day; (mouse, strain (C57 x IF)F1, males, in feed, site: urinary bladder, lesion: carcinoma, dosed 52 weeks, study length 67 weeks) 22.3 mg/kg/day.

For the compound `CNC(=S)N(C)C`, the TD50 runs as follows: (mouse, strain B6C3F1, females, in feed, site: any site (literature study), lesion: several types, types named in the paper, dosed 77 weeks, study length 91 weeks) 1970 mg/kg/day (inactive); (mouse, strain B6C3F1, females, in feed, site: lung, lesion: alveolar/bronchiolar adenoma + alveolar/bronchiolar carcinoma, dosed 77 weeks, study length 91 weeks) 1260 mg/kg/day; (mouse, strain B6C3F1, males, in feed, site: lung, lesion: alveolar/bronchiolar adenoma + alveolar/bronchiolar carcinoma, dosed 77 weeks, study length 91 weeks) 478 mg/kg/day; (rat, strain Fischer 344, females, in feed, site: any site (literature study), lesion: several types, types named in the paper, dosed 77 weeks, study length 106 weeks) 17.4 mg/kg/day; (rat, strain Fischer 344, females, in feed, site: thyroid gland, lesion: follicular-cell adenoma + follicular-cell carcinoma, dosed 77 weeks, study length 106 weeks) 25.8 mg/kg/day; (rat, strain Fischer 344, females, in feed, site: thyroid gland, lesion: follicular-cell carcinoma, dosed 77 weeks, study length 106 weeks) 45 mg/kg/day. In addition, the carcinogen call is “negative (inactive)” (mouse, strain B6C3F1, males, in feed, site: any site (literature study), lesion: several types, types named in the paper, dosed 77 weeks, study length 91 weeks) and “negative (inactive)” (rat, strain Fischer 344, males, in feed, site: any site (literature study), lesion: several types, types named in the paper, dosed 77 weeks, study length 106 weeks).

With `O=C1c2cccc(O)c2C(=O)c2c(O)cccc21`, the TD50 reads like this: (mouse, strain C3H/HeN, males, in feed, site: liver, lesion: hepatocellular adenoma, dosed 77 weeks, study length 77 weeks) 201 mg/kg/day; (mouse, strain C3H/HeN, males, in feed, site: liver, lesion: hepatocellular carcinoma, dosed 77 weeks, study length 77 weeks) 336 mg/kg/day; (mouse, strain C3H/HeN, males, in feed, site: liver, lesion: several types, types named in the paper, dosed 77 weeks, study length 77 weeks) 201 mg/kg/day; (rat, strain ACI, males, in feed, site: large intestine, lesion: several types, types named in the paper, dosed 69 weeks, study length 69 weeks) 245 mg/kg/day.

As to `O=[N+]([O-])c1ccc2ncccc2c1`, where the note is “rat, strain Fischer 344, females, in feed, site: liver, lesion: hyperplastic nodule, dosed 104 weeks, study length 104 weeks”, the carcinogen call was “negative (inactive)”. In addition, the TD50 (rat, strain Fischer 344, males, in feed, site: liver, lesion: hyperplastic nodule, dosed 104 weeks, study length 104 weeks) was 267 mg/kg/day (inactive).

Consider `Nc1ccc(-c2ccccc2)cc1O`, for which, where the note is “rat, strain Not specified, females, in feed, site: liver, lesion: one or several types, types not named, dosed 43 weeks, study length 65 weeks”, the carcinogen call was “negative (inactive)”.

Take `C[C@H]([C@H](O)CCC(C)(C)O)[C@H]1CC[C@@]2(O)C3=CC(=O)[C@@H]4C[C@@H](O)[C@@H](O)C[C@]4(C)[C@H]3CC[C@]12C`: the TD50 is 0.0264 mg/kg/day (mouse, strain Swiss albino, females, by gavage, site: any site (literature study), lesion: malignant tumor, dosed 95 weeks, study length 95 weeks); 0.0264 mg/kg/day (mouse, strain Swiss albino, females, by gavage, site: mammary gland, lesion: adenocarcinoma, dosed 95 weeks, study length 95 weeks); 0.0558 mg/kg/day (mouse, strain Swiss albino, males, by gavage, site: any site (literature study), lesion: malignant tumor, dosed 95 weeks, study length 95 weeks); 0.0558 mg/kg/day (mouse, strain Swiss albino, males, by gavage, site: lung, lesion: adenocarcinoma, dosed 95 weeks, study length 95 weeks).

As for `Cc1cc(C)c(N)cc1C`, the TD50 is 22.4 mg/kg/day (mouse, strain B6C3F1, females, in feed, site: any site (literature study), lesion: several types, types named in the paper, dosed 101 weeks, study length 101 weeks); 6.13 mg/kg/day (mouse, strain B6C3F1, females, in feed, site: liver, lesion: hepatocellular adenoma + hepatocellular carcinoma + neoplastic nodule, dosed 101 weeks, study length 101 weeks); 6.13 mg/kg/day (mouse, strain B6C3F1, females, in feed, site: liver, lesion: hepatocellular carcinoma, dosed 101 weeks, study length 101 weeks); 47.6 mg/kg/day (mouse, strain B6C3F1, females, in feed, site: lung, lesion: alveolar/bronchiolar adenoma + alveolar/bronchiolar carcinoma, dosed 101 weeks, study length 101 weeks); 52.5 mg/kg/day (inactive) (mouse, strain B6C3F1, males, in feed, site: any site (literature study), lesion: several types, types named in the paper, dosed 101 weeks, study length 101 weeks); 14.4 mg/kg/day (mouse, strain B6C3F1, males, in feed, site: liver, lesion: hepatocellular adenoma + hepatocellular carcinoma + neoplastic nodule, dosed 101 weeks, study length 101 weeks). Moreover, the TD50 runs as follows: (mouse, strain CD-1 HaM/ICR, females, in feed, site: any site (literature study), lesion: several types, types named in the paper, dosed 77 weeks, study length 98 weeks) 47.2 mg/kg/day; (mouse, strain CD-1 HaM/ICR, females, in feed, site: liver, lesion: hepatoma, dosed 77 weeks, study length 98 weeks) 62.9 mg/kg/day and 62.3 mg/kg/day; (mouse, strain CD-1 HaM/ICR, females, in feed, site: liver, lesion: several types, types named in the paper, dosed 77 weeks, study length 98 weeks) 60.4 mg/kg/day; (mouse, strain CD-1 HaM/ICR, females, in feed, site: lung, lesion: several types, types named in the paper, dosed 77 weeks, study length 98 weeks) 52.8 mg/kg/day and 64.7 mg/kg/day; (mouse, strain CD-1 HaM/ICR, males, in feed, site: all sites, lesion: all vascular tumors, dosed 77 weeks, study length 98 weeks) 260 mg/kg/day; (mouse, strain CD-1 HaM/ICR, males, in feed, site: any site (literature study), lesion: several types, types named in the paper, dosed 77 weeks, study length 98 weeks) 40.3 mg/kg/day. Besides, the TD50 was 46.2 mg/kg/day and 44.2 mg/kg/day (mouse, strain CD-1 HaM/ICR, males, in feed, site: liver, lesion: hepatoma, dosed 77 weeks, study length 98 weeks); 35.4 mg/kg/day (mouse, strain CD-1 HaM/ICR, males, in feed, site: liver, lesion: several types, types named in the paper, dosed 77 weeks, study length 98 weeks); 40 mg/kg/day and 63 mg/kg/day (mouse, strain CD-1 HaM/ICR, males, in feed, site: lung, lesion: several types, types named in the paper, dosed 77 weeks, study length 98 weeks); 37.2 mg/kg/day (rat, strain Charles River CD (Sprague-Dawley), males, in feed, site: any site (literature study), lesion: several types, types named in the paper, dosed 77 weeks, study length 98 weeks); 98.5 mg/kg/day (rat, strain Charles River CD (Sprague-Dawley), males, in feed, site: liver, lesion: hepatoma, dosed 77 weeks, study length 98 weeks); 47.9 mg/kg/day (rat, strain Charles River CD (Sprague-Dawley), males, in feed, site: liver, lesion: several types, types named in the paper, dosed 77 weeks, study length 98 weeks). The TD50 reads like this: (rat, strain Fischer 344, females, in feed, site: any site (literature study), lesion: several types, types named in the paper, dosed 101 weeks, study length 101 weeks) 396 mg/kg/day; (rat, strain Fischer 344, females, in feed, site: liver + lung, lesion: hepatocellular carcinoma + neoplastic nodule + alveolar/bronchiolar adenoma + alveolar/bronchiolar carcinoma, dosed 101 weeks, study length 101 weeks) 20.4 mg/kg/day; (rat, strain Fischer 344, females, in feed, site: liver, lesion: hepatocellular adenoma + hepatocellular carcinoma + neoplastic nodule, dosed 101 weeks, study length 101 weeks) 27.2 mg/kg/day; (rat, strain Fischer 344, females, in feed, site: liver, lesion: hepatocellular carcinoma + neoplastic nodule, dosed 101 weeks, study length 101 weeks) 27.2 mg/kg/day; (rat, strain Fischer 344, females, in feed, site: liver, lesion: hepatocellular carcinoma, dosed 101 weeks, study length 101 weeks) 142 mg/kg/day; (rat, strain Fischer 344, females, in feed, site: lung, lesion: alveolar/bronchiolar adenoma + alveolar/bronchiolar carcinoma, dosed 101 weeks, study length 101 weeks) 88.1 mg/kg/day. For the same compound, the TD50 is 138 mg/kg/day (rat, strain Fischer 344, males, in feed, site: any site (literature study), lesion: several types, types named in the paper, dosed 101 weeks, study length 101 weeks); 268 mg/kg/day (rat, strain Fischer 344, males, in feed, site: liver, lesion: bile duct carcinoma, dosed 101 weeks, study length 101 weeks); 43.8 mg/kg/day (rat, strain Fischer 344, males, in feed, site: liver, lesion: hepatocellular adenoma + hepatocellular carcinoma + neoplastic nodule, dosed 101 weeks, study length 101 weeks); 43.8 mg/kg/day (rat, strain Fischer 344, males, in feed, site: liver, lesion: hepatocellular carcinoma + neoplastic nodule, dosed 101 weeks, study length 101 weeks); 71.8 mg/kg/day (rat, strain Fischer 344, males, in feed, site: liver, lesion: hepatocellular carcinoma, dosed 101 weeks, study length 101 weeks); 180 mg/kg/day (rat, strain Fischer 344, males, in feed, site: lung, lesion: alveolar/bronchiolar adenoma + alveolar/bronchiolar carcinoma, dosed 101 weeks, study length 101 weeks). Besides, the carcinogen call (rat, strain Charles River CD (Sprague-Dawley), males, in feed, site: subcutaneous tissue, lesion: several types, types named in the paper, dosed 77 weeks, study length 98 weeks) is “positive”.

`c1ccc2[nH]ccc2c1`: the carcinogen call (mouse, strain Swiss albino, females, in feed, site: urinary bladder, lesion: carcinoma, dosed 70 weeks, study length 70 weeks) is “negative (inactive)”.

For the compound `C1C2OC2C2C1C1CC2C2OC12` (stereo not drawn), the TD50 is, setting by setting: (mouse, strain CD-1 HaM/ICR, females, in feed, site: any site (literature study), lesion: several types, types named in the paper, dosed 64 weeks, study length 86 weeks) 789 mg/kg/day (inactive); (mouse, strain CD-1 HaM/ICR, females, in feed, site: lung, lesion: several types, types named in the paper, dosed 64 weeks, study length 86 weeks) 1660 mg/kg/day (inactive); (mouse, strain CD-1 HaM/ICR, males, in feed, site: any site (literature study), lesion: several types, types named in the paper, dosed 77 weeks, study length 86 weeks) 149 mg/kg/day (inactive); (mouse, strain CD-1 HaM/ICR, males, in feed, site: liver, lesion: several types, types named in the paper, dosed 77 weeks, study length 86 weeks) 930 mg/kg/day (inactive); (mouse, strain CD-1 HaM/ICR, males, in feed, site: lung, lesion: several types, types named in the paper, dosed 77 weeks, study length 86 weeks) 373 mg/kg/day (inactive); (rat, strain Charles River CD (Sprague-Dawley), males, in feed, site: any site (literature study), lesion: several types, types named in the paper, dosed 77 weeks, study length 107 weeks) 176 mg/kg/day (inactive). The TD50 (rat, strain Charles River CD (Sprague-Dawley), males, in feed, site: liver, lesion: several types, types named in the paper, dosed 77 weeks, study length 107 weeks) was 3910 mg/kg/day (inactive). Moreover, the carcinogen call (mouse, strain CD-1 HaM/ICR, females, in feed, site: liver, lesion: several types, types named in the paper, dosed 64 weeks, study length 86 weeks) was “negative (inactive)”.
